# Measurements as given in US20220087946A1, “COMPOSITIONS, METHODS, SYSTEMS AND/OR KITS FOR PREVENTING AND/OR TREATING NEOPLASMS” (Research Cancer Institute of America, priority 2017, published 2022).
# Tests used:
# OVCAR 3 Cancer cells = test: Nano formulations in animals with implanted tumor: side effects; conditions: mouse, in vivo
# Experimental: Animals—Immunodeficient, female athymic mice aged 5-6 weeks and weighing between 18 and 20 g were purchased from Taconic Biosciences (Albany, N.Y.). All animal studies were conducted at the animal facility of the Veteran Affairs Medical Center, Albany, N.Y. in accordance with and approved by institutional guidelines for humane animal treatment and according to the current guidelines. Mice were maintained under specific pathogen-free conditions and housed under controlled conditions of temperature (20-24° C.) and humidity (60-70%) and 12 h light/dark cycle with ad libitum access to water and food. Mice were allowed to acclimatize for 5 d prior to the start of study.
# Treatment—OVCAR 3 Cancer cells (1×10^6) were implanted subcutaneously in right flank of each animal. In the first set of experiments, control, free Quercetin (3 mg/kg), NPS-quercetin(3 mg/kg), and FA-NPs-quercetin (3 mg/kg) were injected subcutaneously to the mice everyday (for 14 days). The control was PBS, after humane sacrifice of animals at 14 days, tumors were harvested and amount of QC was measured.
# [1] = cited from earlier work
smiles,measurement,setting,value
"O=c1c(O)c(-c2ccc(O)c(O)c2)oc2cc(O)cc(O)c12 [Quercetin, quercetin]",adverse toxic effect on the health of tumor bearing mice,OVCAR 3 Cancer cells,does not have any adverse toxic effect
same,water solubility,[1],not water soluble
